Measurements published in EP2575807B1, “FORMULATION BASED ON SULPIRIDE AND A SYNERGISTIC HOMEOPATHIC COMPOSITION FOR TREATMENT OF DEPRESSIVE SYNDROME” (Novak, Maja, priority 2010, dated 2011).

Experiments:
[1] = cited from earlier work
[2] = system: women suffering of depressive syndrome; assay: Controlled study of antidepressant activity, Hamilton rating scale for depression (HAMD test); format: in vivo
Method: They are divided onto two groups by randomization: • (i) A control group (N = 32) received once-a-day combined (in the same syringe) dose of 20 mg of sulpiride (1; 0.4 mL) diluted with physiological solution (2.0 mL) by subcutaneous injection during three months (90 days).
The duration of administering was three months (90 days; also subcutaneously).
Neurosurg. Psychiatr. […] Psychiatr.
For the 17-item version of HAMD test, scores can range from 0 to 54. […]
The above results were subjected to paired T-test. […] Paired T-test is usually chosen to establish the difference between groups, i.e. their mean values during the Study.
The study was followed by the use of Hamilton rating scale for depression (HAMD test).

Which oral bioavailability [1] does the source give for `CCN1CCCC1CNC(=O)c1cc(S(N)(=O)=O)ccc1OC` (racemic) [sulpiride, (R,S)-(±)-5-(aminosulfonyl)-N-[(1-ethylpyrrolidin-2-yl)methyl]-2-methoxybenzamide] here?
Its oral bioavailability is 25-35%.

What about the HAMD ([2]; After the Study, once-a-day subcutaneous injection, 20 mg of sulpiride, three months (90 days)) of the same compound?
The HAMD was 17.34 ± 8.77.

And the HAMD ([2]; Before the Study (baseline), 17-item HAMD score, range 0 to 54)?
Its HAMD is 18.91 ± 9.19.

What about the “Mean difference (paired T-test, HAMD before vs after the Study)” value ([2]; once-a-day subcutaneous injection, 20 mg of sulpiride, 90 days) of the same compound?
The value was 1.60.
